Test results: PMC7375007 (Journal of clinical pharmacology, 2019)
Where two headings read alike, the source gives them in different places.

Key:
[1] = for Patients within or below the mycophenolic acid AUC0–12h target range: patients with mild gastrointestinal adverse effects (score 1–2); for Cmax / Tmax / AUC(0-t) / AUC / concentration at 12 h / clearance: human, plasma, oral; for AUC: Mycophenolic acid AUC6–12h, estimate of enterohepatic recirculation; for concentration at 12 h: Mycophenolic acid CP(12h); for clearance: Mycophenolic acid clearance; for Mycophenolic acid dose-normalized AUC0–12h: normalized to 1-mg mycophenolic acid dose equivalent
[2] = Gastrointestinal adverse effect evaluation; assay type: in vivo, human (stable renal transplant recipients); settings: patients with score > 0
[3] = Enterohepatic circulation of mycophenolic acid; assay type: in vivo, human (stable renal transplant recipients); settings: all patients
[4] = tacrolimus- and mycophenolic acid-treated patients; ELITE-SYMPHONY study; cited from earlier work
[5] = Tacrolimus whole-blood trough concentration; assay type: in vivo, human (stable renal transplant recipients); settings: human, oral
[6] = with tacrolimus and enteric-coated mycophenolate sodium, female (n = 29), steady state
[7] = with tacrolimus and enteric-coated mycophenolate sodium, male (n = 38), steady state
[8] = on tacrolimus and enteric-coated mycophenolate sodium

For `COc1c(C)c2c(c(O[C@@H]3O[C@H](C(=O)O)[C@@H](O)[C@H](O)[C@H]3O)c1C/C=C(\C)CCC(=O)O)C(=O)OC2` [Mycophenolic acid glucuronide], the “Mycophenolic acid glucuronide AUC0–12h, fold higher in women than men” value ([1]; tacrolimus group) was 1.37 fold, the “Mycophenolic acid glucuronide AUC0–12h” value [1, 6] was 1068 ± 557 mg·h/L and the “Mycophenolic acid glucuronide CP(12h)” value [1, 6] was 75.1 ± 45.2 mg/L. For the same compound, the “Mycophenolic acid glucuronide Cmax” value [1, 6] was 126000 ± 60000 ng/mL, the “Mycophenolic acid glucuronide tmax” value [1, 6] was 3.68 ± 2.45 h and the “Mycophenolic acid glucuronide AUC0–12h” value [1, 7] was 780 ± 336 mg·h/L. The “Mycophenolic acid glucuronide CP(12h)” value [1, 7] was 54.5 ± 28.0 mg/L, the “Mycophenolic acid glucuronide Cmax” value [1, 7] was 96700 ± 47700 ng/mL and the “Mycophenolic acid glucuronide tmax” value [1, 7] was 3.89 ± 1.76 h.

In the case of `COc1c(C)c2c(c(O)c1C/C=C(\C)CCC(=O)O)C(=O)OC2` [Mycophenolic acid], the “Gastrointestinal adverse effect score” value ([2]; mycophenolic acid AUC0–12h < 30 mg·h/L (n = 22)) is reported as 1.7 ± 0.8, the “Gastrointestinal adverse effect score” value ([2]; mycophenolic acid AUC0–12h > 60 mg h/L (n = 34)) is reported as 3.0 ± 1.7 and the “Gastrointestinal adverse effect score” value ([2]; mycophenolic acid AUC0–12h within 30–60 mg·h/L (n = 54)) is reported as 2.2 ± 1.1. For the same compound, the “Patients within or below the mycophenolic acid AUC0–12h target range of 30–60 mg·h/L” value ([1]; cyclosporine and mycophenolate mofetil, patients with no gastrointestinal adverse effects) was 87%, the “Patients within or below the mycophenolic acid AUC0–12h target range” value ([1]; cyclosporine) was 88.5% and the Cmax ([1]; female, 546 mg) was 21700 ± 10600 ng/mL. The Tmax ([1]; female, 546 mg) was 3.16 ± 2.57 h, the Cmax ([1]; female, 591 mg) was 6490 ± 2300 ng/mL and the Tmax ([1]; female, 591 mg) was 2.07 ± 0.11 h. The AUC(0-t) ([1]; female, Mycophenolic acid AUC0–12h, with cyclosporine and mycophenolate mofetil, female (n = 14), steady state) was 40100 ± 13800 ng·h/mL, the AUC(0-t) ([1]; female, Mycophenolic acid AUC0–12h, with tacrolimus and enteric-coated mycophenolate sodium, female (n = 29), steady state) was 73400 ± 31200 ng·h/mL and the AUC ([1]; female, with cyclosporine and mycophenolate mofetil, female (n = 14)) was 15400 ± 5510 ng·h/mL. For the same compound, the AUC ([1]; female, with tacrolimus and enteric-coated mycophenolate sodium, female (n = 29)) was 29300 ± 24000 ng·h/mL, the concentration at 12 h ([1]; female, with cyclosporine and mycophenolate mofetil, female (n = 14), steady state) was 2200 ± 1000 ng/mL and the concentration at 12 h ([1]; female, with tacrolimus and enteric-coated mycophenolate sodium, female (n = 29), steady state) was 4300 ± 2300 ng/mL. For the same compound, the clearance ([1]; female, African American women receiving tacrolimus) was 162 mL/min, the clearance ([1]; with cyclosporine, all patients) was 342 mL/min and the clearance ([1]; with tacrolimus, all patients) was 177 mL/min. The AUC(0-t) ([1]; male) was 65500 ± 30600 ng·h/mL, the Cmax ([1]; male, 587 mg) was 19600 ± 11200 ng/mL and the Tmax ([1]; male, 587 mg) was 2.88 ± 2.06 h. For the same compound, the Cmax ([1]; male, 715 mg) was 10300 ± 6500 ng/mL, the Tmax ([1]; male, 715 mg) was 1.92 ± 1.2 h and the AUC(0-t) ([1]; male, Mycophenolic acid AUC0–12h, with cyclosporine and mycophenolate mofetil, male (n = 66), steady state) was 41000 ± 18400 ng·h/mL. For the same compound, the AUC ([1]; male, with cyclosporine and mycophenolate mofetil, male (n = 66)) was 12600 ± 7400 ng·h/mL, the AUC ([1]; male, with tacrolimus and enteric-coated mycophenolate sodium, male (n = 38)) was 23800 ± 13400 ng·h/mL and the concentration at 12 h ([1]; male, with cyclosporine and mycophenolate mofetil, male (n = 66), steady state) was 2100 ± 1500 ng/mL. The concentration at 12 h ([1]; male, with tacrolimus and enteric-coated mycophenolate sodium, male (n = 38), steady state) was 3900 ± 2200 ng/mL, the “Patients within the target mycophenolic acid AUC0–12h range of 30–60 mg h/L” value ([1]; men receiving cyclosporine and mycophenolate mofetil) was 54.5% and the “Patients exceeding the target mycophenolic acid AUC0–12h range of 30–60 mg h/L” value ([1]; men receiving tacrolimus and enteric-coated mycophenolate sodium) was 50%. For the same compound, the “Patients achieving target mycophenolic acid AUC0–12h of 30–60 mg·h/L” value ([1]; on cyclosporine and mycophenolate mofetil) was 56.3%, the “Patients above the mycophenolic acid AUC0–12h target of 60 mg·h/L” value [1, 8] was 56.7% and the “Patients achieving target mycophenolic acid AUC0–12h of 30–60 mg·h/L” value [1, 8] was 34.3%. For the same compound, the “Patients exceeding the mycophenolic acid AUC0–12h target range” value ([1]; tacrolimus and enteric-coated mycophenolate sodium, moderate to severe gastrointestinal adverse effects (score ≥ 3)) was 50%, the “Patients above the mycophenolic acid AUC0–12h target range” value ([1]; tacrolimus and enteric-coated mycophenolate sodium, patients with no gastrointestinal adverse effects) was 78.6% and the “Lymphopenic patients with mycophenolic acid AUC0–12h > 60 mg·h/L” value ([1]; tacrolimus-based regimen (22 of 35)) was 62.9%. The “Patients within or below the mycophenolic acid AUC0–12h target range” value ([1]; tacrolimus) was 53.8%, the “Mycophenolic acid dose-normalized AUC0–12h” value ([1]; with cyclosporine and mycophenolate mofetil, female (n = 14)) was 0.066 ± 0.015 mg·h/L/mg and the “Mycophenolic acid dose-normalized AUC0–12h” value ([1]; with cyclosporine and mycophenolate mofetil, male (n = 66)) was 0.058 ± 0.032 mg·h/L/mg. For the same compound, the “Mycophenolic acid dose-normalized AUC0–12h” value ([1]; with tacrolimus and enteric-coated mycophenolate sodium, female (n = 29)) was 0.127 ± 0.053 mg·h/L/mg, the “Mycophenolic acid dose-normalized AUC0–12h” value ([1]; with tacrolimus and enteric-coated mycophenolate sodium, male (n = 38)) was 0.103 ± 0.045 mg·h/L/mg and the “Patients within the target mycophenolic acid AUC0–12h range of 30–60 mg h/L” value ([1]; women receiving cyclosporine and mycophenolate mofetil) was 64.3%. The “Patients exceeding the target mycophenolic acid AUC0–12h range of 30–60 mg h/L” value ([1]; women receiving tacrolimus and enteric-coated mycophenolate sodium) was 65.5%, the “Enterohepatic circulation, frequency” value ([3]; with cyclosporine) was 45% and the “Enterohepatic circulation, frequency” value ([3]; with tacrolimus) was 78%. For the same compound, the “Enterohepatic circulation, frequency” value ([3]; with tacrolimus, listed as mycophenolic acid) was “More than 75%”.

In the case of `C=CC[C@@H]1/C=C(\C)C[C@H](C)C[C@H](OC)[C@H]2O[C@@](O)(C(=O)C(=O)N3CCCC[C@H]3C(=O)O[C@H](/C(C)=C/[C@@H]3CC[C@@H](O)[C@H](OC)C3)[C@H](C)[C@@H](O)CC1=O)[C@H](C)C[C@@H]2OC` [Tacrolimus], the Diarrhea [4] is listed as 25.3%, the concentration at 0 h ([5]; female) is listed as 7.1 ± 1.9 ng/mL and the concentration at 0 h ([5]; male) is listed as 7.3 ± 2 ng/mL.
